Data from BigSolDB 2.1.

N[C@@H](C(=O)O)c1ccc(O)cc1
Settings | solubility (mole fraction)
in DMF, 278.27 K | 1.99e-05
in DMF, 283.23 K | 2.39e-05
in DMF, 288.18 K | 2.67e-05
in DMF, 293.2 K | 3.38e-05
in DMF, 298.39 K | 4.03e-05
in DMF, 303.18 K | 4.93e-05
in DMF, 308.26 K | 6e-05
in DMF, 313.2 K | 7.04e-05
in DMF, 318.39 K | 8.68e-05
in DMF, 323.15 K | 0.000102
in ethanol, 278.28 K | 9.26e-05
in ethanol, 283.42 K | 9.3e-05
in ethanol, 288.18 K | 9.34e-05
in ethanol, 293.24 K | 9.37e-05
in ethanol, 298.38 K | 9.4e-05
in ethanol, 303.17 K | 9.42e-05
in ethanol, 308.39 K | 9.43e-05
in ethanol, 313.19 K | 9.44e-05
in ethanol, 318.37 K | 9.45e-05
in ethanol, 323.26 K | 9.45e-05
in methanol, 278.17 K | 0.00042
in methanol, 283.22 K | 0.000421
in methanol, 288.21 K | 0.000421
in methanol, 293.28 K | 0.000423
in methanol, 298.24 K | 0.000424
in methanol, 303.32 K | 0.000425
in methanol, 308.2 K | 0.000426
in methanol, 313.26 K | 0.000427
in methanol, 318.27 K | 0.000429
in methanol, 323.25 K | 0.00043
in tetrachloromethane, 278.38 K | 0.000225
in tetrachloromethane, 283.23 K | 0.000227
in tetrachloromethane, 288.38 K | 0.000231
in tetrachloromethane, 293.36 K | 0.000234
in tetrachloromethane, 298.29 K | 0.000239
in tetrachloromethane, 303.21 K | 0.000244
in tetrachloromethane, 308.36 K | 0.00025
in tetrachloromethane, 313.3 K | 0.000258
in tetrachloromethane, 318.24 K | 0.000264
in tetrachloromethane, 323.19 K | 0.000272
in toluene, 278.28 K | 0.000157
in toluene, 283.33 K | 0.000164
in toluene, 288.38 K | 0.000165
in toluene, 293.32 K | 0.000172
in toluene, 298.23 K | 0.000175
in toluene, 303.32 K | 0.00018
in toluene, 308.39 K | 0.000189
in toluene, 313.37 K | 0.000195
in toluene, 318.17 K | 0.000205
in toluene, 323.27 K | 0.000216
in water, 278.27 K | 0.0018
in water, 283.25 K | 0.00186
in water, 288.37 K | 0.00194
in water, 293.17 K | 0.00203
in water, 298.26 K | 0.00215
in water, 303.29 K | 0.00229
in water, 308.26 K | 0.00244
in water, 313.28 K | 0.00261
in water, 318.17 K | 0.00279
in water, 323.21 K | 0.00299
